Residues, ends and D or L forms follow the SMILES beside them. *: point of attachment. Cbz = O=C(OCc1ccccc1)*; CH2F = FC*
What was measured:
apoptotic Jurkat cells = experiment: Confocal immunofluorescence microscopy of scFv and annexin V binding to apoptotic Jurkat cells; format: cell-based
Description: (§1) Jurkat cells were harvested from culture and resuspended at a density of 10^6 /ml in RPMI 1640 containing 10% fetal bovine'serum (FBS). Apoptosis was induced for 12 hours with 1.0 μM staurosporine (Sigma Chemical Co. of St. Louis, Mo.), 2.0 μM camptothecin (Sigma), or 2.0 μg/ml anti-Fas antibody (clone 7C11; Beckman Coulter Inc. of Brea, Calif.). To inhibit apoptosis, parallel cultures were pre-incubated for 2 hours with 20 μM z-Val-Ala-Asp(Ome)-fluoromethylketone (z-VAD(Ome)-FMK) (Enzyme System Products of Livermore, Calif.). To inhibit membrane blebbing, parallel cultures were pre-incubated for 2 hours with 10 μM Y-27632 (Tocris of Ballwin, Mo.). At the end of the incubation period, 5×10^5 cells were aliquoted into tubes and stained for flow cytometry or confocal microscopy.
Cells were washed with HBSS and fixed with ice-cold 4% paraformaldehyde for 10 minutes. […] After incubation with the scFv, cells were washed once with HBSS/FBS and incubated with biotinylated annexin V (BD Biosciences) for 15 minutes on ice. Cells were then washed twice with HBSS/FBS and stained with streptavidin-conjugated Alexaflour 488 (Molecular Probes), Rhodamine Red-conjugated human serum IgG (Jackson Immunoresearch Laboratories) and the nucleic acid dye TO-PRO-3 (Molecular Probes). Following staining for 15 minutes on ice, cells were washed with HBSS/FBS and mounted onto poly-L-lysine-coated glass slides for viewing with a Zeiss LSM 510 laser scanning microscope (Carl Zeiss, Inc. of Thorwood, N.Y.).
Cells were washed with HBSS and fixed with ice-cold 4% paraformaldehyde for 10 minutes. […] After incubation with the scFv, cells were washed once with HBSS/FBS and incubated with biotinylated annexin V (BD Biosciences) for 15 minutes on ice. Cells were washed twice with HBSS/FBS and stained with streptavidin-conjugated Alexaflour 488 (Molecular Probes), Rhodamine Red-conjugated human serum IgG (Jackson Immunoresearch Laboratories) and the nucleic acid dye TO-PRO-3 (Molecular Probes). After a 15 minute incubation on ice, cells were washed with HBSS/FBS and mounted onto poly-L-lysine-coated glass slides for viewing with a Zeiss LSM 510 laser scanning microscope (Carl Zeiss Inc., Thorwood, N.Y.).

Jurkat cells = experiment: Flow cytometry of annexin V and scFv binding to Jurkat cells treated with staurosporine, camptothecin or anti-Fas (12 hr); format: cell-based
Description: as §1
Cells were washed with 4.0 ml of ice-cold Hanks Balanced Salt Solution (Mediatech, Herndon, Va.) containing 1.0 mM CaCl2, 3% FBS, and 0.02% NaN3 (HBSS/FBS). […] 30,000 events were examined per sample on a FACSCalibur (BD Biosciences). The staining profiles were analyzed using FLOWJO™ software (Treestar, Inc. of San Carlos, Calif.).

SMILES: COC(=O)C[C@H](NC(=O)[C@H](C)NC(=O)[C@@H](NC(=O)OCc1ccccc1)C(C)C)C(=O)CF [z-VAD(OMe)-FMK, z-Val-Ala-Asp(Ome)-fluoromethylketone] (Cbz-Val-Ala-Asp(OMe)-CH2F)
- effect of pretreatment on staining of cells (apoptotic Jurkat cells; cells treated with camptothecin or anti-Fas antibody): greatly reduced
- effect of pretreatment on annexin V and scFv binding (apoptotic Jurkat cells; cells treated with staurosporine): reduces both annexin V and scFv binding to background levels
- effect of pretreatment on binding of the D56R/S76R scFv (Jurkat cells; 20 μM, 2 hours pre-incubation): largely eliminated
- effect of pretreatment on staining with annexin V (Jurkat cells; 20 μM, 2 hours pre-incubation): decreased to near-background levels

SMILES: CC[C@@]1(O)C(=O)OCc2c1cc1n(c2=O)Cc2cc3ccccc3nc2-1 [camptothecin]
- cells observed to bind annexin V (Jurkat cells; 12 hr incubation with the apoptotic stimulus): Approximately 29%

SMILES: C[C@@H](N)[C@H]1CC[C@H](C(=O)Nc2ccncc2)CC1 [Y-27632]
- effect on binding of annexin V (apoptotic Jurkat cells): did not affect
- blebbing and nuclear fragmentation (apoptotic Jurkat cells; anti-Fas treated cells, 10 μM): inhibited
- effect on binding of the D56R/S76R scFv (apoptotic Jurkat cells; anti-Fas treated cells, 10 μM): greatly reduced

Source: patent US20030138419A1, “Recombinant antibody fusion proteins and methods for detection of apoptotic cells” (The University of Tennessee Research Corporation, priority 2001, published 2003)
